Test results reported in PubChem BioAssay (NCI).
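Dose response: 5 concentrations. Exposure: 48 h. Format: 96-well plates. Endpoint: linear interpolation; highest concentration if not reached. TGI marks complete inhibition of growth.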 Where a SMILES comes first, the peptide text is derived from it. [ ]: non-standard residue; d: D form. The star is where a group is joined. ξ: configuration not given here. dThr(3ξ) = CC(O)[C@@H](N)C(=O)O; dNMeL = CN[C@H](CC(C)C)C(=O)O; OBn = c1ccc(CO*)cc1; ξLac = CC(O)C(=O)O

What was measured:
Assay in all cases: DTP human tumour cell line panel, 48 h
BT-549 breast = test system: BT-549 breast
COLO 205 colon = test system: COLO 205 colon
HCC-2998 colon = test system: HCC-2998 colon
HCT-15 colon = test system: HCT-15 colon
HOP-62 NSCLC = test system: HOP-62 NSCLC
HT29 colon = test system: HT29 colon
K-562 leukemia = test system: K-562 leukemia
LOX IMVI melanoma = test system: LOX IMVI melanoma
M14 melanoma = test system: M14 melanoma
MALME-3M melanoma = test system: MALME-3M melanoma
MDA-MB-435 = test system: MDA-MB-435
MDA-N = test system: MDA-N
OVCAR-4 ovarian = test system: OVCAR-4 ovarian
OVCAR-8 ovarian = test system: OVCAR-8 ovarian
PC-3 prostate = test system: PC-3 prostate
SN12C renal = test system: SN12C renal
SR leukemia = test system: SR leukemia
UO-31 renal = test system: UO-31 renal
SK-MEL-2 melanoma = test system: SK-MEL-2 melanoma
SK-OV-3 ovarian = test system: SK-OV-3 ovarian

Compound	TGI (BT-549 breast) [µM]	TGI (COLO 205 colon) [µM]	TGI (HCC-2998 colon) [µM]	TGI (HCT-15 colon) [µM]	TGI (HOP-62 NSCLC) [µM]	TGI (HT29 colon) [µM]	TGI (K-562 leukemia) [µM]	TGI (LOX IMVI melanoma) [µM]	TGI (M14 melanoma) [µM]	TGI (MALME-3M melanoma) [µM]	TGI (MDA-MB-435) [µM]	TGI (MDA-N) [µM]	TGI (OVCAR-4 ovarian) [µM]	TGI (OVCAR-8 ovarian) [µM]	TGI (PC-3 prostate) [µM]	TGI (SN12C renal) [µM]	TGI (SR leukemia) [µM]	TGI (UO-31 renal) [µM]	TGI (SK-MEL-2 melanoma) [µM]	TGI (SK-OV-3 ovarian) [µM]
N#CC1=C(S)N(C2OC(CO)C(O)C(O)C2O)C(c2ccccc2)=CC1c1ccccc1 (configuration not stated)	> 100	> 100	96.4	> 100	> 100	> 100	> 100	86.6	> 100	> 100	> 100	> 100	> 100	> 100	> 100	> 100	> 100	> 100	–	–
CCOC(=O)CC(=O)C(=O)NNC1=NCCCN1	> 100	> 100	> 100	> 100	> 100	> 100	> 100	> 100	> 100	> 100	> 100	> 100	> 100	> 100	> 100	> 100	> 100	> 100	> 100	> 100
CC(=O)OC(C)[C@@H](NC(=O)[C@@H](CC(C)C)N(C)C(=O)[C@@H]1CCCN1C(=O)C(C)O)C(=O)OCc1ccccc1 (some centres not stated) (H-[ξLac]P[dNMeL][dThr(3ξ)](Ac)-OBn)	> 100	> 100	> 100	> 100	> 100	> 100	> 100	> 100	> 100	> 100	> 100	> 100	> 100	> 100	> 100	> 100	> 100	> 100	> 100	> 100
COc1[nH]c(C(Cl)(Cl)Cl)c(Cl)c(=O)c1Cl	> 100	> 100	> 100	> 100	> 100	> 100	> 100	> 100	–	> 100	> 100	> 100	> 100	> 100	> 100	> 100	> 100	> 100	> 100	> 100
Cc1cc2c(c(C=Nc3ccc([N+](=O)[O-])cc3)c1)OC1(C=C2)Oc2ccccc2C(=O)N1C (configuration not stated)	58.7	54.3	36.2	39.4	82.9	36.3	91.5	27.1	57.8	–	> 100	> 100	64.2	36.9	44.4	46.2	55.3	42.3	57.9	59.8
C=CC1ON(C)CCc2cc(OC)c(OC)cc21 (configuration not stated)	> 100	> 100	> 100	> 100	> 100	> 100	> 100	> 100	> 100	> 100	> 100	> 100	–	> 100	> 100	> 100	> 100	> 100	–	–
CN(/N=C/c1cccs1)c1ccc(Cl)cc1[N+](=O)[O-]	> 100	–	> 100	> 100	> 100	> 100	> 100	–	> 100	–	> 100	> 100	> 100	> 100	> 100	> 100	> 100	> 100	–	> 100
COC(=O)C1=NN2c3ccccc3C(=O)OCCC2(C)C1 (configuration not stated)	> 100	> 100	> 100	> 100	> 100	> 100	> 100	> 100	–	> 100	> 100	> 100	> 100	> 100	> 100	> 100	> 100	> 100	> 100	> 100
O=c1c2cc([N+](=O)[O-])ccc2n(Cc2ccccc2)n1Cc1ccccc1	27	> 31.6	> 31.6	> 31.6	> 31.6	> 31.6	> 31.6	> 31.6	20.7	> 31.6	17.5	21.2	> 31.6	22.4	31	> 31.6	> 31.6	27.3	20.2	–
Cc1cccc(N=Nc2c(C)nn(C(=O)CC(=O)Nc3ccccc3)c2C)c1	> 100	> 100	> 100	> 100	> 100	> 100	–	> 100	> 100	> 100	> 100	> 100	> 100	> 100	> 100	> 100	> 100	> 100	> 100	> 100
c1ccc(C2C3=C(CCCC3)Nc3nc4cc5ccccc5cc4n32)cc1 (configuration not stated)	> 100	> 100	> 100	> 100	–	> 100	> 100	> 100	> 100	> 100	> 100	> 100	> 100	> 100	> 100	> 100	> 100	> 100	> 100	> 100
CC(=O)OCC1OC(n2c(C)c(N=Nc3ccccc3)c(C)c(C#N)c2=S)C(OC(C)=O)C(OC(C)=O)C1OC(C)=O (configuration not stated)	> 100	> 100	> 100	–	34.5	> 100	> 100	> 100	> 100	> 100	> 100	> 100	> 100	–	> 100	> 100	> 100	> 100	62.2	> 100
CC(=O)Nc1ccc(C(=O)NN2C(=O)C(Cl)C2c2cc(Br)ccc2O)cc1 (configuration not stated)	> 100	> 100	> 100	> 100	> 100	> 100	> 100	–	45.5	> 100	> 100	> 100	> 100	> 100	> 100	> 100	> 100	32.3	> 100	> 100
COc1ccc(CNc2nc3cc(C(F)(F)F)ccc3nc2C(=O)O)cc1OC	> 100	57.7	95.8	> 100	66.1	> 100	74.7	> 100	> 100	–	80.2	> 100	> 100	> 100	> 100	77.9	63.8	> 100	51.8	> 100
Cc1cn(C2CC(O)C(Cn3cc(Cn4ncc(=O)[nH]c4=O)nn3)O2)c(=O)[nH]c1=O (configuration not stated)	> 100	> 100	> 100	> 100	> 100	> 100	–	> 100	> 100	> 100	> 100	> 100	> 100	> 100	> 100	> 100	> 100	> 100	> 100	> 100
COc1ccccc1C(C1=C(O)COC1=O)c1cc2c(cc1OC(C)=O)OCO2 (configuration not stated)	> 100	> 100	> 100	> 100	> 100	> 100	> 100	> 100	> 100	> 100	> 100	> 100	> 100	> 100	> 100	> 100	> 100	> 100	–	> 100
OCC1NCC(O)C(O)C1O (configuration not stated)	> 100	> 100	> 100	> 100	> 100	> 100	–	–	> 100	55.8	> 100	> 100	> 100	> 100	> 100	> 100	> 100	> 100	–	> 100
O=C(NC1CCC(=O)N1C(=O)OCc1ccccc1)OCc1ccccc1 (configuration not stated)	> 100	> 100	> 100	> 100	> 100	> 100	> 100	–	> 100	> 100	> 100	> 100	–	> 100	> 100	> 100	> 100	> 100	> 100	> 100
O=C1CC(CC(O)C(O)C(O)CO)CC(=O)N1 (configuration not stated)	> 100	> 100	> 100	> 100	> 100	> 100	> 100	> 100	> 100	> 100	> 100	> 100	> 100	> 100	> 100	> 100	> 100	> 100	–	–
